{"source": "patent US20090258046A1", "about": "“COMPOSITION, FORMULATIONS AND KIT FOR TREATMENT OF RESPIRATORY AND LUNG DISEASE WITH NON-GLUCOCORTICOID STEROIDS AND/OR UBIQUINONE AND A BRONCHODILATING AGENT” (priority 2001, published 2009)", "key": {"HT-29 SF cells [1]": {"system": "HT-29 SF cells", "assay": "Reversal of DHEA-mediated growth inhibition by medium supplements", "type": "cell-based, human", "details": "25 μM DHEA, 48 hour treatment; 2 μM MVA, 80 μM SQ, 15 μg/ml CH, RN 30 μM each, DN 20 μM each", "experimental": "RN plus DN, or MVA plus CH plus RN, or medium that was not supplemented. All compounds were obtained from Sigma Chemical Co. (St. Louis, Mo.) Cholesterol was solubilized in ethanol immediately before use. […] In A, the medium was supplemented with 2 μM MVA, 80 μM SQ, 15 μg/ml CH, or MVA plus CH (MVA+CH) or was not supplemented (CON). […] RN plus DN (RN+DN); or MVA plus CH plus RN (MVA+CH+RN). […] Columns represent cell growth percentage of untreated controls; bars represent SEM. Increase in cell number in untreated controls was […]. Each data point represents quadruplicate dishes from four independent experiments. Statistical analysis was performed using Student's t test κ ρ<0.01; φ ρ<, 0.001; compared to treated controls."}, "HT-29 SF cells [2]": {"system": "HT-29 SF cells", "assay": "Reversal of DHEA effect on cell cycle by medium supplements (flow cytometry)", "type": "cell-based, human", "details": "for prevention of DHEA-induced S phase depletion: 2 FM MVA, 15 Fg/ml CH, RN 30 FM"}, "purified G6PDH": {"molecular_target": "purified G6PDH (Homo sapiens, UniProt P11413)", "sequence (P11413 whole entry)": "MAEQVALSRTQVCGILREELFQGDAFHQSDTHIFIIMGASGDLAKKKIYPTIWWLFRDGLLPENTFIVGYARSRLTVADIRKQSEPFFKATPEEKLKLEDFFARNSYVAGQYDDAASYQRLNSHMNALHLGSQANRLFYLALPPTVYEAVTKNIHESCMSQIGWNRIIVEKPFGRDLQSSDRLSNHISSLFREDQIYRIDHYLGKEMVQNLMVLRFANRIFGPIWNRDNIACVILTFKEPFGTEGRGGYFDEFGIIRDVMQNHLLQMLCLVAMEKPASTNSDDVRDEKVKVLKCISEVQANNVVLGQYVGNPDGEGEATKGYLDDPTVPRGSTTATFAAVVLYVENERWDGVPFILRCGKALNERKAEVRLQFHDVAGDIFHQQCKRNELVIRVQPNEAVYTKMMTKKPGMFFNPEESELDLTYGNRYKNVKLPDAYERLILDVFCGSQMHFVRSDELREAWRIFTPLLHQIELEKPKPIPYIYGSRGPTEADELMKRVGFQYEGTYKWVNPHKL", "assay": "Enzymatic assay of purified G6PDH (absorbance at 340 nm)", "details": "in vitro", "description": "All experiments were repeated 4 times.\nA second group was added different concentrations of a CoQ of long side chain (in triplicate), and a third group received a CoQ of short side chain (in triplicate), both at various doses in the μM range.\nThe reaction was started by addition of the enzyme, and the increase in absorbance at 340 nm was measured for 5 minutes. Each data point was conducted in triplicate, and the fill experiment was repeated 4 times."}, "HT-29 SF cells [3]": {"system": "HT-29 SF cells", "assay": "DHEA effect on cell cycle distribution (flow cytometry, propidium iodide)", "type": "cell-based, human"}, "HT-29 SF cells [4]": {"system": "HT-29 SF cells", "assay": "DHEA effect on cell growth (Coulter counter cell number)", "description": "Cell cultures, HT-29 SF cells, which represent a subline of HY-29 cells (ATCC, Rockville, Md.) and are adapted for growth in completely defined serum-free PC-1 medium (Ventrex, Portland, Me.), were obtained. Stock cultures were maintained in this medium at 37° (in a humidified atmosphere containing 5% CO2)."}, "[5]": {"system": "Intracellular adenosine in various Rat Tissues", "assay": "In vivo effect on tissue adenosine levels in rats (HPLC of 1,N6-ethenoadenosine)", "parameters": "species or system Fischer 344 rats", "details": "for Intracellular adenosine, Brain / Intracellular adenosine, Heart / Intracellular adenosine, Liver: mean ± SEM", "source_text": "[…] […] Hearts were removed from animals and flash frozen in liquid nitrogen with 10 seconds of death. Liver and lungs were removed en bloc and flash frozen with 30 seconds of death. Brain tissue was subsequently dissected."}, "[6]": {"details": "high dose methyltestosterone daily for two weeks, versus control"}, "[7]": {"details": "methyltestosterone 40 mg/kg by gavage once daily for fourteen days"}, "[8]": {"details": "folinic acid 50 mg/kg intraperitoneally once daily for fourteen days"}}}
{"smiles": "CC(C)CCC[C@@H](C)[C@H]1CC[C@H]2[C@@H]3CC=C4C[C@@H](O)CC[C@]4(C)[C@H]3CC[C@]12C", "note": "[CH, cholesterol]", "values": [{"measurement": "reversal of DHEA-induced growth inhibition", "setting": "HT-29 SF cells [1]", "result": "no such effect"}, {"measurement": "prevention of DHEA-induced S phase depletion", "setting": "HT-29 SF cells [2]; 48 hours", "result": "very little effect"}, {"measurement": "prevention of DHEA-induced S phase depletion", "setting": "HT-29 SF cells [2]; 72 hours", "result": "no effect"}]}
{"smiles": "C[C@]12CC[C@H](O)CC1=CC[C@@H]1[C@@H]2CC[C@]2(C)C(=O)CC[C@@H]12", "note": "[DHEA, dehydroepiandrosterone]", "values": [{"measurement": "inhibition of G6PDH enzyme activity (in words)", "setting": "purified G6PDH; various doses in the μM range, compared to controls", "result": "inhibited the enzyme activity in a statistically significant manner"}, {"measurement": "inhibition of the activity of purified G6PDH compared to control", "setting": "purified G6PDH; concentration not given", "result": 72, "unit": "%"}, {"measurement": "cell morphology", "setting": "HT-29 SF cells [2]; DHEA exposure (data not shown)", "result": "rounded shape"}, {"measurement": "proportion of cells in S phase", "setting": "HT-29 SF cells [2]; with increasing exposure time (48 and 72 hours)", "result": "progressively reduced"}, {"measurement": "proportion of cells in S phase", "setting": "HT-29 SF cells [3]; 200 μM DHEA, after 24 hours, continued through the treatment", "result": "decreased"}, {"measurement": "overall effect on cell cycle", "setting": "HT-29 SF cells [3]; 25-200 μM DHEA, 24-72 hours", "result": "G1 block in HT-29 SF cells in a time- and dose-dependent manner"}, {"measurement": "G2M phase cells", "setting": "HT-29 SF cells [3]; 25 or 50 μM DHEA, after 48 hours", "result": "transient increase"}, {"measurement": "percentage of cells in G1 phase", "setting": "HT-29 SF cells [3]; 25 or 50 μM DHEA, after 72 hours", "result": "increased"}, {"measurement": "cell cycle distribution", "setting": "HT-29 SF cells [3]; 25 or 50 μM DHEA, after the initial 24 hours", "result": "unchanged"}, {"measurement": "proportion of cells in S phase", "setting": "HT-29 SF cells [3]; 25 or 50 μM DHEA, as time of exposure increased", "result": "progressively decreased"}, {"measurement": "inhibition of growth", "setting": "HT-29 SF cells [4]; 0-200 μM DHEA, 0-72 hours", "result": "time- and dose-dependent inhibition of growth"}, {"measurement": "exposure time after which cell number was reduced compared to controls", "setting": "HT-29 SF cells [4]; 12.5 μM DHEA", "result": 72, "unit": "h"}, {"measurement": "exposure time after which cell number was reduced compared to controls", "setting": "HT-29 SF cells [4]; 25 μM DHEA", "result": 48, "unit": "h"}, {"measurement": "exposure time after which cell number was reduced compared to controls", "setting": "HT-29 SF cells [4]; 50 μM DHEA", "result": 48, "unit": "h"}, {"measurement": "exposure time after which cell number was reduced compared to controls", "setting": "HT-29 SF cells [4]; 200 μM DHEA", "result": 24, "unit": "h"}]}
{"smiles": "C[C@]12CCC(=O)C=C1CC[C@@H]1[C@@H]2CC[C@@]2(C)[C@H]1CC[C@]2(C)O", "note": "[Methyl-testosterone, methyltestosterone]", "values": [{"measurement": "effect on adenosine across organs", "setting": "[5]; administered daily for two weeks", "result": "multi-organ depletion of adenosine"}, {"measurement": "depletion of adenosine in brain", "setting": "[5]; [6]", "result": 34, "unit": "%"}, {"measurement": "depletion of adenosine in heart", "setting": "[5]; [6]", "result": 22, "unit": "%"}, {"measurement": "Intracellular adenosine, Brain", "setting": "[5]; [7]", "result": "0.42 ± 0.06", "unit": "nmols/mg protein"}, {"measurement": "Intracellular adenosine, Heart", "setting": "[5]; [7]", "result": "8.3 ± 1.0", "unit": "nmols/mg protein"}, {"measurement": "Intracellular adenosine, Liver", "setting": "[5]; [7]", "result": "16.5 ± 0.9", "unit": "nmols/mg protein"}, {"measurement": "Intracellular adenosine, Brain", "setting": "[5]; methyltestosterone 120 mg/kg", "result": "0.32 ± 0.03", "unit": "nmols/mg protein"}, {"measurement": "Intracellular adenosine, Heart", "setting": "[5]; methyltestosterone 120 mg/kg", "result": "6.0 ± 0.4", "unit": "nmols/mg protein"}, {"measurement": "Intracellular adenosine, Liver", "setting": "[5]; methyltestosterone 120 mg/kg", "result": "5.1 ± 0.5", "unit": "nmols/mg protein"}]}
{"smiles": "CC(C)=CCC/C(C)=C/CC/C(C)=C/CC/C=C(\\C)CC/C=C(\\C)CCC=C(C)C", "note": "[SQ, squalene]", "values": [{"measurement": "reversal of DHEA-induced growth inhibition", "setting": "HT-29 SF cells [1]", "result": "no such effect"}]}
{"smiles": "Nc1nc(=O)c2c([nH]1)NCC(CNc1ccc(C(=O)N[C@@H](CCC(=O)O)C(=O)O)cc1)N2C=O", "note": "(mixture of isomers) [Folinic Acid, Folinic acid]", "values": [{"measurement": "Intracellular adenosine, Brain", "setting": "[5]; [8]", "result": "0.72 ± 0.09", "unit": "nmols/mg protein"}, {"measurement": "Intracellular adenosine, Heart", "setting": "[5]; [8]", "result": "12.4 ± 2.1", "unit": "nmols/mg protein"}, {"measurement": "Intracellular adenosine, Liver", "setting": "[5]; [8]", "result": "16.4 ± 2.4", "unit": "nmols/mg protein"}, {"measurement": "effect on adenosine levels, all organs studied", "setting": "[5]; folinic acid administered alone", "result": "increase"}, {"measurement": "effect of coadministration on steroid-mediated adenosine depletion", "setting": "[5]; folinic acid coadministered with DHEA or methyltestosterone", "result": "completely abrogated"}]}
{"smiles": "C[C@@](O)(CCO)CC(=O)O", "note": "[MVA, mevalonic acid]", "values": [{"measurement": "reversal of DHEA-induced growth inhibition", "setting": "HT-29 SF cells [1]", "result": "partially overcome"}, {"measurement": "prevention of DHEA-induced S phase depletion", "setting": "HT-29 SF cells [2]; 48 hours", "result": "partially prevented"}, {"measurement": "prevention of DHEA-induced S phase depletion", "setting": "HT-29 SF cells [2]; 72 hours", "result": "not"}, {"measurement": "prevention of DHEA-induced rounded shape", "setting": "HT-29 SF cells [2]; supplement added to culture medium (data not shown)", "result": "prevented"}]}
